Measured values as given in US20180200257A1, “METHODS FOR THE TREATMENT OF INFLAMMATORY DISORDERS” (Galapagos NV, priority 2015, published 2018).

System: subjects with moderately to severely active RA who have an inadequate response to methotrexate (MTX)
Experiment: Study 1 (add-on to MTX) - ACR responses (ACR20/50/70)
Type: in vivo, human
Source text: The terms “ACR20”, “ACR50” and “ACR70” as used herein are scores which indicate how much a patient's rheumatoid arthritis has improved according to criteria set out by the American College of Rheumatology (ACR). The ACR score represents a percentage. An ACR20 score means that a person's RA has improved by 20%, an ACR50 score means it has improved by 50%, and an ACR70 score means it has improved by 70%. Specifically, to qualify for an ACR20 score, a person with RA must have at least 20% fewer tender joints and at least 20% fewer swollen joints. In addition the patient must show a 20% improvement in at least three of the following five areas: the person's overall (global) assessment of his or her own RA, the physician's global assessment of the person's RA, the person's assessment of his or her own pain, the person's assessment of his or her own physical functioning, and the results of an erythrocyte sedimentation rate or C-reactive protein (CRP) blood test (both of which test for inflammation). ACR50 and ACR70 scores use the same criteria but require 50% and 70% improvement, respectively, (Felson et al., 1993). In the data presented herein the CRP blood test is used.
Double-blind, placebo-controlled add on study in subjects with moderately to severely active RA who have an inadequate response to methotrexate (MTX) (oral or parenteral).
595 subjects randomized to one of 6 dose regimens of Compound 1 (dosed as [Compound 1:HCl:3H2O]) (3 dose levels administered either once or twice daily) or placebo on top of each subject's stable dose of MTX.
Compound 1 (dosed as [Compound 1:HCl:3H2O]) is dosed for twelve weeks once daily (q.d.) (50 mg, 100 mg or 200 mg) or twice daily (b.i.d.) (25 mg, 50 mg or 100 mg); or placebo.
At Week 12, the subjects on placebo who have not achieved 20% improvement in swollen joint count (SJC66) and tender joint count (TJC68) are re-randomized automatically to receive Compound 1 (dosed as a [Compound 1:HCl:3H2O]) either at 100 mg q.d. or 50 mg b.i.d. doses in a blinded fashion; subjects on 50 mg q.d. who have not achieved 20% improvement in SJC66 and TJC68 will be assigned to 100 mg q.d. and subjects on 25 mg b.i.d. that have not achieved a 20% improvement in SJC66 and TJC68 will be assigned to 50 mg b.i.d. Subjects who switch treatment at week 12 are handled as if they discontinued at week 12 for the purpose of statistical analysis, whereas subjects in the other groups will maintain their randomized treatment until Week 24.
The American College of Rheumatology (ACR) composite score, which evaluates clinical improvement relative to an initial assessment, is a commonly accepted efficacy end point for clinical trials in patients with rheumatoid arthritis. The ACR score correspond to a percentage improvement in pre-set parameters, and therefore measures the evolution of the disease in a patient. For example, ACR20 denotes at least 20% improvement in tender and swollen joint counts and in three of the following end points: global assessment by the patient, global assessment by the doctor, C reactive protein (CRP), patient's pain Visual Analogue Scale and Health Assessment Questionnaire Score. The number of swollen joints, ESR and CRP correlate with radiographic progression of joint damage, whereas tender joint counts, as well as global assessments by doctors and patients, and patients' reports of pain, are sensitive to change in clinical outcomes. Physical function, as assessed by the Health Assessment Questionnaire Score, is a potent predictor of the risk of disability in rheumatoid arthritis (Felson and American College of Rheumatology Committee to Reevaluate Improvement Criteria, 2007; Felson et al., 1993).
In particular, the list of parameters used to assess ACR score can be found in the Table XCVI below and the results of the ACR responses at week 12 via either NRI or LOCF are shown in the tables below. The Hommel-corrected p-value for the pairwise comparisons of each group with placebo is shown. […]

[1] = 50 mg q.d., week 2, 12 weeks results
[2] = 50 mg q.d., week 2, 24 weeks results
[3] = 50 mg q.d., week 4, 12 weeks results
[4] = 50 mg q.d., week 4, 24 weeks results
[5] = 50 mg q.d., week 12, 12 weeks results
[6] = 50 mg q.d., week 12, 24 weeks results
[7] = 50 mg q.d., week 16, 24 weeks results
[8] = 50 mg q.d., week 20, 24 weeks results
[9] = 50 mg q.d., week 24, 24 weeks results
[10] = 50 mg q.d., at week 1, 12 weeks results
[11] = 50 mg q.d., at week 1, 24 weeks results
[12] = 50 mg q.d., week 8, 12 weeks results
[13] = 50 mg q.d., week 8, 24 weeks results
[14] = 100 mg q.d., week 2, 12 weeks results
[15] = 100 mg q.d., week 2, 24 weeks results
[16] = 100 mg q.d., week 4, 12 weeks results
[17] = 100 mg q.d., week 4, 24 weeks results
[18] = 100 mg q.d., week 8, 24 weeks results
[19] = 100 mg q.d., week 12, 12 weeks results

O=C(Nc1nc2cccc(-c3ccc(CN4CCS(=O)(=O)CC4)cc3)n2n1)C1CC1 [Compound 1, cyclopropanecarboxylic acid {5-[4-(1,1-dioxo-thiomorpholin-4-ylmethyl)-phenyl]-[1,2,4]triazolo[1,5-a]pyridin-2-yl}-amide]
ACR20 (LOCF) [1]: 39.0%
ACR20 (NRI) [1]: 37.8%
ACR50 (LOCF) [1]: 7.3%
ACR50 (NRI) [1]: 7.3%
ACR70 (LOCF) [1]: 2.4%
ACR70 (NRI) [1]: 2.4%
ACR20 (LOCF) [2]: 39.0%
ACR20 (NRI) [2]: 37.8%
ACR50 (LOCF) [2]: 7.3%
ACR50 (NRI) [2]: 7.3%
ACR70 (LOCF) [2]: 2.4%
ACR70 (NRI) [2]: 2.4%
ACR20 (LOCF) [3]: 45.1%
ACR20 (NRI) [3]: 42.7%
ACR50 (LOCF) [3]: 12.2%
ACR50 (NRI) [3]: 12.2%
ACR70 (LOCF) [3]: 7.3%
ACR70 (NRI) [3]: 7.3%
ACR20 (LOCF) [4]: 45.1%
ACR20 (NRI) [4]: 42.7%
ACR50 (LOCF) [4]: 12.2%
ACR50 (NRI) [4]: 12.2%
ACR70 (LOCF) [4]: 7.3%
ACR70 (NRI) [4]: 7.3%
ACR20 (LOCF) [5]: 59.8%
ACR20 (NRI) [5]: 56.1%
ACR50 (LOCF) [5]: 31.7%
ACR50 (NRI) [5]: 31.7%
ACR70 (LOCF) [5]: 15.9%
ACR70 (NRI) [5]: 15.9%
ACR20 (LOCF) [6]: 59.8%
ACR20 (NRI) [6]: 56.1%
ACR50 (LOCF) [6]: 31.7%
ACR50 (NRI) [6]: 31.7%
ACR70 (LOCF) [6]: 15.9%
ACR70 (NRI) [6]: 15.9%
ACR20 (LOCF) [7]: 59.8%
ACR20 (NRI) [7]: 56.1%
ACR50 (LOCF) [7]: 37.8%
ACR50 (NRI) [7]: 37.8%
ACR70 (LOCF) [7]: 18.3%
ACR70 (NRI) [7]: 18.3%
ACR20 (LOCF) [8]: 61.0%
ACR20 (NRI) [8]: 57.3%
ACR50 (LOCF) [8]: 39.0%
ACR70 (LOCF) [8]: 23.2%
ACR20 (LOCF) [9]: 61.0%
ACR20 (NRI) [9]: 54.9%
ACR50 (LOCF) [9]: 36.6%
ACR70 (LOCF) [9]: 22.0%
ACR20 (LOCF) [10]: 22.0%
ACR20 (NRI) [10]: 22.0%
ACR50 (LOCF) [10]: 2.4%
ACR50 (NRI) [10]: 2.4%
ACR70 (LOCF) [10]: 0.0%
ACR70 (NRI) [10]: 0.0%
ACR20 (LOCF) [11]: 22.0%
ACR20 (NRI) [11]: 22.0%
ACR50 (LOCF) [11]: 2.4%
ACR50 (NRI) [11]: 2.4%
ACR70 (LOCF) [11]: 0.0%
ACR70 (NRI) [11]: 0.0%
ACR20 (LOCF) [12]: 57.3%
ACR20 (NRI) [12]: 54.9%
ACR50 (LOCF) [12]: 25.6%
ACR50 (NRI) [12]: 26.8%
ACR70 (LOCF) [12]: 11.0%
ACR70 (NRI) [12]: 11.0%
ACR20 (LOCF) [13]: 57.3%
ACR20 (NRI) [13]: 54.9%
ACR50 (LOCF) [13]: 26.8%
ACR50 (NRI) [13]: 26.8%
ACR70 (LOCF) [13]: 11.0%
ACR70 (NRI) [13]: 11.0%
ACR20 (LOCF) [14]: 45.9%
ACR20 (NRI) [14]: 47.1%
ACR50 (LOCF) [14]: 20.0%
ACR50 (NRI) [14]: 20.0%
ACR70 (LOCF) [14]: 7.1%
ACR70 (NRI) [14]: 7.1%
ACR20 (LOCF) [15]: 48.2%
ACR20 (NRI) [15]: 47.1%
ACR50 (LOCF) [15]: 20.0%
ACR50 (NRI) [15]: 20.0%
ACR70 (LOCF) [15]: 7.1%
ACR70 (NRI) [15]: 7.1%
ACR20 (LOCF) [16]: 48.2%
ACR20 (NRI) [16]: 50.6%
ACR50 (LOCF) [16]: 32.9%
ACR50 (NRI) [16]: 32.9%
ACR70 (LOCF) [16]: 15.3%
ACR70 (NRI) [16]: 15.3%
ACR20 (LOCF) [17]: 51.8%
ACR20 (NRI) [17]: 51.8%
ACR50 (LOCF) [17]: 32.9%
ACR50 (NRI) [17]: 32.9%
ACR70 (LOCF) [17]: 15.3%
ACR70 (NRI) [17]: 15.3%
ACR20 (LOCF) [18]: 64.7%
ACR20 (NRI) [18]: 64.7%
ACR50 (LOCF) [18]: 35.3%
ACR50 (NRI) [18]: 35.3%
ACR70 (LOCF) [18]: 23.5%
ACR70 (NRI) [18]: 23.5%
ACR20 (LOCF) [19]: 63.5%
ACR20 (NRI) [19]: 62.4%
ACR50 (LOCF) [19]: 38.8%
ACR50 (NRI) [19]: 38.8%
